From patent US20050148661A1 (priority 2002, published 2005)

Key:
sodium channels = assay: patch clamp in whole cell configuration on DUM neurons; type: cell-based, cockroaches
[1] = cited from earlier work
calcium channels = assay: electrophysiological study of the effect on calcium channels; type: cell-based, cockroaches
Protocol: An electrophysiological study was carried out in vitro by: • a) current and voltage clamp techniques on axon isolated from cockroaches with the double oil separation technique, • b) patch clamp techniques in whole cell configuration on DUM neurons (dorsal unpair median neuron) from cockroaches (DEA Laurence Gamelin, Etude de la neurotoxicité d'un dérivé du platine, l'oxaliplatine, par une approche électrophysiologique, Paris VII (1999)).
Indeed, BAPTA, a calcium chelator, gave an identical sodium channel inhibition curve. […] This blocking of the sodium channels causes abnormalities in the action potential of the neuron, that is to say neuronal depolarization disorders and potentially disturbances in the transmission of the impulse.

[2] = after a cumulative dose of 750-850 mg/m^2; cited from earlier work
potassium ion currents = assay: current and voltage clamp on axon isolated from cockroaches (double oil separation technique); type: cell-based; details: applied externally; isolated cockroach axon
[3] = clinical cases 1 to 3: oxaliplatin cycles with or without calcium and magnesium infusion
[4] = oxalate and ions in plasma and urine of patients treated with oxaliplatin
[5] = clinical study: prevention of the neurotoxicity of oxaliplatin by calcium and magnesium infusion (103 treatments)
sodium ion currents = assay: current and voltage clamp on axon isolated from cockroaches (double oil separation technique); type: cell-based; details: applied externally; isolated cockroach axon
[6] = case 3, C6, without calcium and magnesium
[7] = case 3, cycles C3, C4, C5, without calcium and magnesium
[8] = patients treated with oxaliplatin

With `N.N.O=C([O-])C1(C(=O)[O-])CCC1.[Pt+2]` [carboplatin] the “effect of other platinum salts (sodium channels)” value (from here on “effect of other platinum salts”) (sodium channels) was “no effect”.
In the case of `N[C@@H]1CCCC[C@H]1N.O=C([O-])C(=O)[O-].[Pt+2]` (relative stereo) [oxaliplatin, 1,2-diamine cyclohexane (trans-1)oxalatoplatinum], the “share penetrating unchanged into the cell” value ([1]; FIG. 1) is listed as 70%, the “share of oxalate release / dichlorodachplatin formation carried out in the intracellular medium” value ([1]; first stage of metabolism) is listed as 70% and the “share of oxalate release / dichlorodachplatin formation carried out in the plasma medium” value ([1]; first stage of metabolism) is listed as 30%. The “effect on the calcium channels” value (calcium channels) was “no significant effect”, the “frequency of the grade 3 neuropathy” value [2] was 15-20% and the “amplitude of the action potential over time” value (sodium channels; current clamp, whole cell patch clamp, DUM neurons) was “reduction in the amplitude of the action potential over time”. The “plateau of sodium current reduction (inhibition)” value (sodium channels; voltage clamp, DUM neurons) was 60%, the “reduction in the sodium current” value (sodium channels; voltage clamp, over 10 minutes) was 50% and the “modification in the potassium ion currents” value (potassium ion currents) was “no significant modification”. The “distal and perioral paresthesia” value ([3]; case 2, cycle 1, 5-FU, folinic acid + oxaliplatin 130 mg/m^2/21 days, no calcium and magnesium) was “grade 3”, the diarrhea ([3]; case 2, cycle 1, no calcium and magnesium) was “grade 3” and the “neuropathy, NCI” value [3, 6] was “grade 3”. For the same molecule, the “neuropathy, specific scale” value [3, 6] was 3, the “duration of the incapacitating neuropathy” value ([3]; case 3, after C6, without calcium and magnesium) was 18 months and the “distal, perioral paresthesia, NCI” value ([3]; case 3, cycles 1 and 2, 5-FU, folinic acid + oxaliplatin 130 mg/m^2/3 weeks without calcium and magnesium) was “grade 2”. The “distal, perioral paresthesia, specific scale” value ([3]; case 3, cycles 1 and 2, without calcium and magnesium) was “grade 1”, the “neuropathy, NCI” value [3, 7] was “grade 2” and the “neuropathy, specific scale” value [3, 7] was 2. The “oxalate in plasma (normally undetectable)” value [4, 8] was “significant concentrations”, the “plasma concentrations of calcium (total, ionized) and of magnesium (total and overall)” value [4, 8] was “without any variation” and the “calciuria, kaliuria and magnesuria” value ([4]; within 5 hours following the start of infusion) was “rise”. The “urinary elimination of oxalate” value ([4]; within 5 hours following the start of infusion of oxaliplatin) was “substantial”, the “total dose after which oxaliplatin can be reintroduced” value ([5]; after prolonged treatment, even with chronic persistent neuropathy, combined with infusion of calcium and magnesium) was “up to 780 mg/m^2” and the “patients with no neurological manifestation” value ([5]; cycle 6, in the absence of calcium and magnesium) was 12%. The “discontinuations linked to progression of the disease” value ([5]; group of patients without calcium or magnesium) was 44%, the “toxic causes for discontinuation: neuropathy” value ([5]; group without calcium and magnesium) was 56% and the “modification in the sodium ion currents” value (sodium ion currents) was “no significant modification”.
With `[Ca]` [calcium] the “reduction of risk of neurological manifestations at a distance from oxaliplatin administration” value ([5]; calcium by the oral route) was “effective”.
In the case of `O=C(O)CN(CC(=O)O)c1ccccc1OCCOc1ccccc1N(CC(=O)O)CC(=O)O` [BAPTA], the “sodium channel inhibition curve compared with oxaliplatin” value (sodium channels; calcium chelator tested) is reported as “identical”.
With `N.N.[Cl][Pt][Cl]` [cisplatin] the “effect of other platinum salts” value (sodium channels) was “no effect”.
In the case of `NC1CCCCC1N.[Cl][Pt][Cl]` (centres unmarked) [Dach platin, diaminecyclohexaneplatinum], the “effect of other platinum salts” value (sodium channels) is reported as “no effect”.
